Values quoted from earlier work as cited in patent US8025907B2, “Cosmetic composition to accelerate repair of functional wrinkles” (priority 2005, dated 2011).

How the values were obtained:
[1] = test system: forehead expression lines; conditions: 28 days

| Substance | reduction of forehead expression lines [1] | wrinkle depth reduction by the hexapeptide component (wrinkles; after thirty days, after factoring the influence of the cosmetic base ingredient) | time before a visible reduction in wrinkles can occur (wrinkles; on average) |
| --- | --- | --- | --- |
| Dipeptide Diaminobutyroyl Benzalamide Diacetate | up to 52% | – | – |
| acetyl hexapeptide-3 | – | less than 30% | up to 30 days |
